These compounds were tested against T1, recombinant His-tag Y220C p53 DBD protein (Homo sapiens, UniProt P04637, Y220C) (assay: In vitro DNA binding activity assay (TR-FRET): binding of His-tag Y220C p53 DBD to biotin-labeled consensus DNA). Conditions: SC150 = concentration to increase DNA binding by […], His-tag Y220C p53 DBD, biotin-labeled consensus DNA.
T1 construct: recombinant His-tag Y220C p53 DBD protein (amino acids #˜94-312)
Assay type: biochemical

Row | Y220C SC150 (μM) | SMILES
1 | * (* = 0 μM ≤ SC150 < 0.1 μM) | CN1CC[C@@H](Nc2cccc3c2cc(-c2noc(CNC(=O)[C@H]4C[C@@H]4c4ccccc4)n2)n3CC(F)(F)F)[C@@H](F)C1 (racemic) [Compound 180B, (+/−)-(1R,2R)-N-{[3-(4-{[(3R,4S)-3-fluoro-1-methylpiperidin-4-yl]amino}-1-(2,2,2-trifluoroethyl)-1H-indol-2-yl)-1,2,4-oxadiazol-5-yl]methyl}-2-phenylcyclopropane-1-carboxamide]
2 | * (* = 0 μM ≤ SC150 < 0.1 μM) | COc1cc(S(C)(=O)=O)ccc1NCc1nc(-c2cc3c(N[C@@H]4CCN(C)C[C@@H]4F)cccc3n2CC(F)(F)F)no1 (racemic) [Compound 183B, (+/−)-N-[(3R,4S)-3-fluoro-1-methylpiperidin-4-yl]-2-(5-{[(4-methanesulfonyl-2-methoxyphenyl)amino]methyl}-1,2,4-oxadiazol-3-yl)-1-(2,2,2-trifluoroethyl)-1H-indol-4-amine]
3 | * (* = 0 μM ≤ SC150 < 0.1 μM) | CN1CC[C@@H](Nc2cccc3c2cc(-c2noc(CNC(=O)c4ccn(C(C)(C)C)c4)n2)n3CC(F)(F)F)[C@@H](F)C1 (racemic) [Compound 184B, (+/−)-tert-butyl-N-{[3-(4-{[(3R,4S)-3-fluoro-1-methylpiperidin-4-yl]amino}-1-(2,2,2-trifluoroethyl)-1H-indol-2-yl)-1,2,4-oxadiazol-5-yl]methyl}-1H-pyrrole-3-carboxamide]
4 | * (* = 0 μM ≤ SC150 < 0.1 μM) | CN1CC[C@@H](Nc2cccc3c2cc(-c2noc(CNC(=O)[C@@H]4C[C@H]4c4ccccc4)n2)n3CC(F)(F)F)[C@@H](F)C1 (racemic) [Compound 185B]
5 | * (* = 0 μM ≤ SC150 < 0.1 μM) | COc1cc(S(C)(=O)=O)ccc1NCc1nc(-c2cc3c(N[C@@H]4CCNC[C@@H]4F)cccc3n2CC(F)(F)F)no1 (racemic) [Compound 188B, (+/−)-N-[(3R,4S)-3-fluoropiperidin-4-yl]-2-(5-{[(4-methanesulfonyl-2-methoxyphenyl)amino]methyl}-1,2,4-oxadiazol-3-yl)-1-(2,2,2-trifluoroethyl)-1H-indol-4-amine]
6 | ** (** = 0.1 μM ≤ SC150 < 0.5 μM) | CN(Cc1nc(-c2cc3c(N[C@@H]4CCNC[C@@H]4F)cccc3n2CC(F)(F)F)no1)c1cn[nH]c1 (racemic) [Compound 191B, (+/−)-N-[(3R,4S)-3-fluoropiperidin-4-yl]-2-(5-{[methyl(1H-pyrazol-4-yl)amino]methyl}-1,2,4-oxadiazol-3-yl)-1-(2,2,2-trifluoroethyl)-1H-indol-4-amine]
7 | * (* = 0 μM ≤ SC150 < 0.1 μM) | CN1CC[C@@H](Nc2cccc3c2cc(-c2noc(CN(C)c4cn[nH]c4)n2)n3CC(F)(F)F)[C@@H](F)C1 (racemic) [Compound 192B, (+/−)-N-[(3R,4S)-3-fluoro-1-methylpiperidin-4-yl]-2-(5-{[methyl(1H-pyrazol-4-yl)amino]methyl}-1,2,4-oxadiazol-3-yl)-1-(2,2,2-trifluoroethyl)-1H-indol-4-amine]
8 | * (* = 0 μM ≤ SC150 < 0.1 μM) | CN1CC[C@@H](Nc2cccc3c2cc(-c2noc(CNC(=O)[C@H]4C[C@@H]4C#N)n2)n3CC(F)(F)F)[C@@H](F)C1 (racemic) [Compound 193B, (1RS,2RS)-2-cyano-N-{[3-(4-{[(3S,4R)-3-fluoro-1-methylpiperidin-4-yl]amino}-1-(2,2,2-trifluoroethyl)-1H-indol-2-yl)-1,2,4-oxadiazol-5-yl]methyl}cyclopropane-1-carboxamide]
9 | * (* = 0 μM ≤ SC150 < 0.1 μM) | CN1CC[C@@H](Nc2cccc3c2cc(-c2nc(CNC(=O)C4CC4)no2)n3CC(F)(F)F)[C@@H](F)C1 (racemic) [Compound 275B, (+/−)-N-{[5-(4-{[(3R,4S)-3-fluoro-1-methylpiperidin-4-yl]amino}-1-(2,2,2-trifluoroethyl)-1H-indol-2-yl)-1,2,4-oxadiazol-3-yl]methyl}cyclopropanecarboxamide]
10 | * (* = 0 μM ≤ SC150 < 0.1 μM) | CN1CC[C@@H](Nc2cccc3c2cc(-c2nc(CNC(=O)c4ccccc4)no2)n3CC(F)(F)F)[C@@H](F)C1 (racemic) [Compound 276B, (+/−)-N-{[5-(4-{[(3R,4S)-3-fluoro-1-methylpiperidin-4-yl]amino}-1-(2,2,2-trifluoroethyl)-1H-indol-2-yl)-1,2,4-oxadiazol-3-yl]methyl}benzamide]
11 | * (* = 0 μM ≤ SC150 < 0.1 μM) | CN1CC[C@@H](Nc2cccc3c2cc(-c2nc(CNC(=O)c4cccs4)no2)n3CC(F)(F)F)[C@@H](F)C1 (racemic) [Compound 277B, (+/−)-N-{[5-(4-{[(3R,4S)-3-fluoro-1-methylpiperidin-4-yl]amino}-1-(2,2,2-trifluoroethyl)-1H-indol-2-yl)-1,2,4-oxadiazol-3-yl]methyl}thiophene-2-carboxamide]
12 | * (* = 0 μM ≤ SC150 < 0.1 μM) | CN1CC[C@@H](Nc2cccc3c2cc(-c2nc(CNC(=O)c4ccsc4)no2)n3CC(F)(F)F)[C@@H](F)C1 (racemic) [Compound 278B, (+/−)-N-{[5-(4-{[(3R,4S)-3-fluoro-1-methylpiperidin-4-yl]amino}-1-(2,2,2-trifluoroethyl)-1H-indol-2-yl)-1,2,4-oxadiazol-3-yl]methyl}thiophene-3-carboxamide]
13 | * (* = 0 μM ≤ SC150 < 0.1 μM) | CN1CC[C@@H](Nc2cccc3c2cc(-c2nc(CNC(=O)c4cncs4)no2)n3CC(F)(F)F)[C@@H](F)C1 (racemic) [Compound 279B, (+/−)-N-{[5-(4-{[(3R,4S)-3-fluoro-1-methylpiperidin-4-yl]amino}-1-(2,2,2-trifluoroethyl)-1H-indol-2-yl)-1,2,4-oxadiazol-3-yl]methyl}-1,3-thiazole-5-carboxamide]
14 | ** (** = 0.1 μM ≤ SC150 < 0.5 μM) | CC(C)(C)n1ccc(C(=O)NCc2nc(-c3cc4c(N[C@@H]5CCCC[C@H]5F)cccc4n3CC(F)(F)F)no2)c1 (racemic) [Compound 340B]
15 | * (* = 0 μM ≤ SC150 < 0.1 μM) | COCC(C)n1ccc(C(=O)NCc2nc(-c3cc4c(N[C@@H]5CCN(C(C)(C)C)C[C@@H]5F)cccc4n3CC(F)(F)F)no2)c1 (mixture of isomers) [Compound 357B, rac-N-{[3-(4-{[(3R,4S)-1-tert-butyl-3-fluoropiperidin-4-yl]amino}-1-(2,2,2-trifluoroethyl)-1H-indol-2-yl)-1,2,4-oxadiazol-5-yl]methyl}-1-(1-methoxypropan-2-yl)-1H-pyrrole-3-carboxamide]
16 | * (* = 0 μM ≤ SC150 < 0.1 μM) | COCC(C)n1ccc(C(=O)NCc2nc(-c3cc4c(N[C@@H]5CCN(C(C)(C)C)C[C@H]5F)cccc4n3CC(F)(F)F)no2)c1 (mixture of isomers) [Compound 358B, rac-N-{[3-(4-{1[(3R,4R)-1-tert-butyl-3-fluoropiperidin-4-yl]amino}-1-(2,2,2-trifluoroethyl)-1H-indol-2-yl)-1,2,4-oxadiazol-5-yl]methyl}-1-(1-methoxypropan-2-yl)-1H-pyrrole-3-carboxamide]
17 | * (* = 0 μM ≤ SC150 < 0.1 μM) | CO[C@@H]1CCC[C@@H]1n1cc(C(=O)NCc2nc(-c3cc4c(N[C@@H]5CCN(C)C[C@@H]5F)cccc4n3CC(F)(F)F)no2)cn1 (racemic) [Compound 370B]
18 | * (* = 0 μM ≤ SC150 < 0.1 μM) | CC(C)(C)n1ccc(C(=O)NCc2nc(-c3cc4c(N[C@@H]5CNCC[C@@H]5F)cccc4n3CC(F)(F)F)no2)c1 (racemic) [Compound 382B, rac-1-tert-butyl-N-{[3-(4-{[(3R,4S)-4-fluoropiperidin-3-yl]amino}-1-(2,2,2-trifluoroethyl)-1H-indol-2-yl)-1,2,4-oxadiazol-5-yl]methyl}-1H-pyrrole-3-carboxamide]
19 | * (* = 0 μM ≤ SC150 < 0.1 μM) | CO[C@]1(C)CC[C@H](n2ccc(C(=O)NCc3nc(-c4cc5c(N[C@@H]6CCN(C)C[C@@H]6F)cccc5n4CC(F)(F)F)no3)c2)C1 (racemic) [Compound 387B, cis-N-{[3-(4-{[(3S,4R)-3-fluoro-1-methylpiperidin-4-yl]amino}-1-(2,2,2-trifluoroethyl)-1H-indol-2-yl)-1,2,4-oxadiazol-5-yl]methyl}-1-[(1R,3S)-3-methoxy-3-methylcyclopentyl]-1H-pyrrole-3-carboxamide]
20 | * (* = 0 μM ≤ SC150 < 0.1 μM) | CO[C@@]1(C)CC[C@H](n2ccc(C(=O)NCc3nc(-c4cc5c(N[C@@H]6CCN(C)C[C@@H]6F)cccc5n4CC(F)(F)F)no3)c2)C1 (racemic) [Compound 388B]
21 | * (* = 0 μM ≤ SC150 < 0.1 μM) | CN1CC[C@H](F)[C@H](Nc2cccc3c2cc(-c2noc(CNC(=O)c4ccn(C(C)(C)C)c4)n2)n3CC(F)(F)F)C1 (racemic) [Compound 389B, rac-1-tert-butyl-N-{[3-(4-{[(3R,4S)-4-fluoro-1-methylpiperidin-3-yl]amino}-1-(2,2,2-trifluoroethyl)-1H-indol-2-yl)-1,2,4-oxadiazol-5-yl]methyl}-1H-pyrrole-3-carboxamide]
22 | * (* = 0 μM ≤ SC150 < 0.1 μM) | Cn1ccc(C(=O)NCc2nc(-c3cc4c(N[C@@H]5CCN(C(C)(C)C)C[C@H]5F)cccc4n3CC(F)(F)F)no2)c1 (racemic) [Compound 399B, N-{[3-(4-{[(3R,4R)-1-tert-butyl-3-fluoropiperidin-4-yl]amino}-1-(2,2,2-trifluoroethyl)-1H-indol-2-yl)-1,2,4-oxadiazol-5-yl]methyl}-1-methyl-1H-pyrrole-3-carboxamide]
23 | * (* = 0 μM ≤ SC150 < 0.1 μM) | Cn1cc(C(=O)NCc2nc(-c3cc4c(N[C@@H]5CCN(C(C)(C)C)C[C@H]5F)cccc4n3CC(F)(F)F)no2)cn1 (racemic) [Compound 407B, N-{[3-(4-{[(3R,4R)-1-tert-butyl-3-fluoropiperidin-4-yl]amino}-1-(2,2,2-trifluoroethyl)-1H-indol-2-yl)-1,2,4-oxadiazol-5-yl]methyl}-1-methyl-1H-pyrazole-4-carboxamide]

Reference: patent US11807644B2 (PMV Pharmaceuticals, Inc., priority 2020, dated 2023)
